According to patent US20060069132A1, “Azolecarboxamide herbicides” (priority 2004, published 2006):
Like-named read-outs stand apart in the source and are kept apart here.

How the values were obtained:
morningglory = test: Test A pre-/postemergence herbicide test; format: in vivo, Ipomoea spp.; conditions: for pest or weed control at 500 g/ha / pest or weed control at 2000 g/ha: Ipomoea, 240 h
How it was run: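 Pre: seeded sandy loam, directed soil spray, compound in non-phytotoxic solvent + surfactant. Post: 1–2-leaf plants (2–10 cm), sprayed to runoff. Greenhouse ~10 d; visual injury vs untreated, 0–100 scale.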

bermudagrass = test: Test C pre-/postemergence herbicide test; format: in vivo, Cynodon dactylon; conditions: for pest or weed control at 62 g/ha / pest or weed control at 125 g/ha / pest or weed control at 250 g/ha / pest or weed control at 500 g/ha: Cynodon dactylon, pre-emergence, 312 h; for pest or weed control at 62 g/ha / pest or weed control at 125 g/ha / pest or weed control at 250 g/ha: read-out: Plant response rating, Bermudagrass; for pest or weed control at 250 g/ha: scale 0-100; for pest or weed control at 500 g/ha: read-out: Bermudagrass plant response rating
How it was run: (§1)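 Visual injury scores run from 0 (no effect) to 100 (complete control), assessed relative to untreated controls 12 to 14 days after treatment in the greenhouse. Chemicals were formulated in a non-phytotoxic solvent mixture with surfactant and applied to soil after planting or to emerged plants at the 1- to 4-leaf stage.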

eastern black nightshade = test: Test C pre-/postemergence herbicide test; format: in vivo, Solanum ptycanthum; conditions: for pest or weed control at 62 g/ha / pest or weed control at 125 g/ha / pest or weed control at 250 g/ha / pest or weed control at 500 g/ha: pre-emergence, read-out: Plant response rating, Nightshade; for pest or weed control at 62 g/ha: scale 0 to 100; for pest or weed control at 250 g/ha: 250 g ai/ha, scale 0-100; for pest or weed control at 500 g/ha: scale 0 to 100 (0 no effect, 100 complete control)
How it was run: as §1

[1] = test system: common (oilseed) sunflower; test: Test C pre-/postemergence herbicide test; format: in vivo, Helianthus annuus; conditions: for pest or weed control at 62 g/ha / pest or weed control at 250 g/ha / pest or weed control at 500 g/ha: Helianthus annuus, pre-emergence, read-out: Plant response rating, Sunflower; for pest or weed control at 62 g/ha: scale 0 to 100; for pest or weed control at 250 g/ha: 250 g ai/ha, scale 0-100; for pest or weed control at 500 g/ha: scale 0 to 100 (0 no effect, 100 complete control)
How it was run: as §1

rice = test: Test C flooded paddy test; format: in vivo, Oryza sativa; conditions: for plant injury at 62 g/ha / plant injury at 125 g/ha / plant injury at 250 g/ha / plant injury at 500 g/ha: Oryza sativa; for plant injury at 500 g/ha: read-out: Plant response rating, Rice
How it was run: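 Postemergence sprays applied to plants 2 to 18 cm tall (1- to 4-leaf stage); paddy species grown to 2-leaf stage under flooding. After 12 to 14 days in greenhouse, visual rating versus untreated controls on 0–100 scale (0 no effect, 100 complete control).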

annual bluegrass = test: Test E pre-/postemergence herbicide test; format: in vivo, Poa annua
How it was run: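 Seeds were planted and treated preemergence with test chemicals in a non-phytotoxic solvent mixture containing surfactant; plants at 2 to 18 cm (1- to 4-leaf stage) received postemergence applications of the same formulation. After 12 to 14 days in a greenhouse, injury was visually rated against untreated controls on a 0 to 100 scale.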

[2] = post-emergence, Postemergence, 500 g ai/ha, 0 to 100 scale, 0 no effect, 100 complete control, read-out: Morningglory plant response rating
[3] = post-emergence, Postemergence, 2000 g ai/ha, 0 to 100 scale, 0 no effect, 100 complete control, read-out: Plant response rating, Morningglory
[4] = pre-emergence, Preemergence, 2000 g ai/ha, visual rating, 0 to 100 scale (0 no effect, 100 complete control), read-out: Morningglory plant response rating
[5] = pre-emergence, preemergence, 500 g ai/ha, visual injury, 0 to 100 scale (0 no effect, 100 complete control), read-out: Morningglory plant response rating
[6] = 62 g ai/ha, preemergence, scale 0 to 100, 0 no effect, 100 complete control
[7] = 125 g ai/ha, scale 0 (no effect) to 100 (complete control), visual, 12 to 14 days
[8] = Preemergence, 500 g ai/ha, scale 0 to 100, 0 no effect, 100 complete control
[9] = 500 g ai/ha, visual, 12 to 14 days
[10] = 125 g ai/ha, scale 0 to 100 (0 no effect, 100 complete control), read-out: Rice plant response rating
[11] = 250 g ai/ha, scale of 0 to 100, 0 is no effect, 100 is complete control, read-out: Rice plant response rating
[12] = 500 g ai/ha, visual rating after 12 to 14 days, scale 0 to 100 (0 no effect, 100 complete control)
[13] = Preemergence, 62 g ai/ha, scale 0 to 100
[14] = Preemergence, 125 g ai/ha, scale 0 to 100
[15] = Preemergence, 250 g ai/ha, scale 0 (no effect) to 100 (complete control)
[16] = Preemergence, 500 g ai/ha, scale 0 (no effect) to 100 (complete control)
[17] = 125 g ai/ha, scale 0 (no effect) to 100 (complete control), visual, 12 to 14 days, preemergence
[18] = postemergence, 125 g ai/ha, scale 0 to 100
[19] = postemergence, 62 g ai/ha, scale 0 to 100

Q: How did the pest or weed control at 500 g/ha (morningglory; [2]) turn out when `CCN1N=C(C(C)(C)C)CC1C(=O)Nc1cc(C(=O)N(C)C)ccc1F` (centres unmarked) [Compound 268, N-[5-[(dimethylamino)carbonyl]-2-fluorophenyl]-3-(1,1-dimethylethyl)-1-ethyl-4,5-dihydro-1H-pyrazole-5-carboxamide] was run?
A: 20%

Q: And the pest or weed control at 2000 g/ha (morningglory; [3])?
A: 40%

Q: What about the pest or weed control at 2000 g/ha (morningglory; [4]) of the same compound?
A: 25%

Q: And the pest or weed control at 500 g/ha (morningglory; [5])?
A: 5%

Q: What about the pest or weed control at 62 g/ha (bermudagrass; [6]) of the same compound?
A: 100%

Q: And the pest or weed control at 125 g/ha (bermudagrass; [7])?
A: 100%

Q: And the pest or weed control at 250 g/ha (bermudagrass; 250 g ai/ha)?
A: 100%

Q: What about the pest or weed control at 500 g/ha (bermudagrass; [8]) of the same compound?
A: 100%

Q: And the pest or weed control at 62 g/ha (eastern black nightshade; 62 g ai/ha, preemergence)?
A: 100%

Q: What about the pest or weed control at 125 g/ha (eastern black nightshade; [7]) of the same compound?
A: 100%

Q: And the pest or weed control at 250 g/ha (eastern black nightshade)?
A: 100%

Q: What about the pest or weed control at 500 g/ha (eastern black nightshade; [9]) of the same compound?
A: 100%

Q: And the pest or weed control at 62 g/ha ([1]; 62 g ai/ha, preemergence)?
A: 0%

Q: What about the pest or weed control at 250 g/ha [1] of the same compound?
A: 60%

Q: What about the pest or weed control at 500 g/ha [1, 9] of the same compound?
A: 90%

Q: And the plant injury at 62 g/ha (rice; 62 g ai/ha, scale 0 to 100, read-out: Rice plant response rating)?
A: 75%

Q: What about the plant injury at 125 g/ha (rice; [10]) of the same compound?
A: 85%

Q: What about the plant injury at 250 g/ha (rice; [11]) of the same compound?
A: 90%

Q: What about the plant injury at 500 g/ha (rice; [12]) of the same compound?
A: 90%

Q: And the “Plant response rating, Bluegrass” value (annual bluegrass; [13])?
A: 80

Q: And the “Plant response rating, Bluegrass” value (annual bluegrass; [14])?
A: 95

Q: What about the “Plant response rating, Bluegrass” value (annual bluegrass; [15]) of the same compound?
A: 95

Q: And the “Plant response rating, Bluegrass” value (annual bluegrass; [16])?
A: 95

Q: Which “Morningglory plant response rating” value (morningglory; Postemergence, 500 g ai/ha, 0 to 100 scale, 0 no effect, 100 complete control) does the source give for `CCNC(=O)c1cccc(NC(=O)c2cc(C(C)(C)C)nn2CC)n1` [Compound 144] here?
A: 25

Q: What about the “Plant response rating, Morningglory” value (morningglory; Postemergence, 2000 g ai/ha, 0 to 100 scale, 0 no effect, 100 complete control) of the same compound?
A: 35

Q: What about the “Morningglory plant response rating” value (morningglory; Preemergence, 500 g ai/ha, visual rating, 0 to 100 scale (0 no effect, 100 complete control)) of the same compound?
A: 20

Q: What about the “Morningglory plant response rating” value (morningglory; Preemergence, 2000 g ai/ha, visual rating, 0 to 100 scale (0 no effect, 100 complete control)) of the same compound?
A: 75

Q: And the “Plant response rating (0 = no effect, 100 = complete control), Bermudagrass” value (bermudagrass; 62 g ai/ha, preemergence)?
A: 70

Q: What about the “Plant response rating, Bermudagrass” value (bermudagrass; [17]) of the same compound?
A: 80

Q: What about the “Plant response rating, Bermudagrass” value (bermudagrass; 250 g ai/ha, scale 0 to 100 (0 no effect, 100 complete control), visual, 12 to 14 days, preemergence) of the same compound?
A: 80

Q: And the “Bermudagrass plant response rating” value (bermudagrass; [8])?
A: 90

Q: What about the “Plant response rating, Bermudagrass” value (bermudagrass; [18]) of the same compound?
A: 0

Q: And the “Plant response rating, Bermudagrass” value (bermudagrass; [19])?
A: 0

Q: And the “Plant response rating (0 = no effect, 100 = complete control), Nightshade” value (eastern black nightshade; 62 g ai/ha, preemergence)?
A: 90

Q: What about the “Plant response rating, Nightshade” value (eastern black nightshade; [17]) of the same compound?
A: 100

Q: And the “Nightshade plant response rating” value (eastern black nightshade; [8])?
A: 100

Q: And the “Plant response rating (0 = no effect, 100 = complete control), Sunflower” value ([1]; 62 g ai/ha, preemergence)?
A: 0

Q: What about the “Plant response rating, Sunflower” value [1, 17] of the same compound?
A: 0

Q: What about the “Sunflower plant response rating” value [1, 8] of the same compound?
A: 40

Q: What about the “Rice plant response rating” value (rice; 62 g ai/ha, scale 0 to 100 (0 no effect, 100 complete control)) of the same compound?
A: 0

Q: What about the “Rice plant response rating” value (rice; 125 g ai/ha, scale 0 to 100 (0 no effect, 100 complete control)) of the same compound?
A: 20

Q: And the “Rice plant response rating” value (rice; 250 g ai/ha, scale of 0 to 100, 0 is no effect, 100 is complete control)?
A: 30

Q: What about the “Plant response rating, Rice” value (rice; [12]) of the same compound?
A: 30

Q: And the “Plant response rating, Bluegrass” value (annual bluegrass; [13])?
A: 80

Q: And the “Plant response rating, Bluegrass” value (annual bluegrass; Preemergence, 125 g ai/ha, scale 0 (no effect) to 100 (complete control))?
A: 90

Q: And the “Plant response rating, Bluegrass” value (annual bluegrass; [15])?
A: 100

Q: And the “Plant response rating, Bluegrass” value (annual bluegrass; [16])?
A: 100

Q: `CCc1nn(C(C)(C)C)cc1C(=O)Nc1cc(C(=O)N(C)C)ccc1F` [Compound 222, N-[5-[(dimethylamino)carbonyl]-2-fluorophenyl]-1-(1,1-dimethylethyl)-3-ethyl-1H-pyrazole-4-carboxamide] was tested. Which pest or weed control at 500 g/ha (morningglory; [2]) did it give?
A: 80%

Q: What about the pest or weed control at 2000 g/ha (morningglory; [3]) of the same compound?
A: 95%

Q: And the pest or weed control at 2000 g/ha (morningglory; [4])?
A: 100%

Q: What about the pest or weed control at 500 g/ha (morningglory; [5]) of the same compound?
A: 75%

Q: And the pest or weed control at 62 g/ha (bermudagrass; [6])?
A: 85%

Q: And the pest or weed control at 125 g/ha (bermudagrass; [7])?
A: 100%

Q: And the pest or weed control at 250 g/ha (bermudagrass; 250 g ai/ha)?
A: 100%

Q: What about the pest or weed control at 500 g/ha (bermudagrass; [8]) of the same compound?
A: 100%

Q: What about the pest or weed control at 62 g/ha (eastern black nightshade; 62 g ai/ha, preemergence) of the same compound?
A: 85%

Q: What about the pest or weed control at 125 g/ha (eastern black nightshade; [7]) of the same compound?
A: 100%

Q: What about the pest or weed control at 250 g/ha (eastern black nightshade) of the same compound?
A: 100%

Q: What about the pest or weed control at 500 g/ha (eastern black nightshade; [9]) of the same compound?
A: 100%

Q: What about the pest or weed control at 62 g/ha ([1]; 62 g ai/ha, preemergence) of the same compound?
A: 0%

Q: And the pest or weed control at 250 g/ha [1]?
A: 30%

Q: And the pest or weed control at 500 g/ha [1, 9]?
A: 30%

Q: What about the plant injury at 62 g/ha (rice; 62 g ai/ha, scale 0 to 100 (0 no effect, 100 complete control), read-out: Rice plant response rating) of the same compound?
A: 30%

Q: What about the plant injury at 125 g/ha (rice; [10]) of the same compound?
A: 70%

Q: What about the plant injury at 250 g/ha (rice; [11]) of the same compound?
A: 85%

Q: And the plant injury at 500 g/ha (rice; [12])?
A: 85%

Q: What about the “Plant response rating, Bluegrass” value (annual bluegrass; Postemergence, 500 g ai/ha, scale 0 to 100) of the same compound?
A: 90

Q: And the “Plant response rating, Bluegrass” value (annual bluegrass; Postemergence, 250 g ai/ha, scale 0 to 100)?
A: 90

Q: And the “Plant response rating, Bluegrass” value (annual bluegrass; [13])?
A: 90

Q: And the “Plant response rating, Bluegrass” value (annual bluegrass; [14])?
A: 100

Q: And the “Plant response rating, Bluegrass” value (annual bluegrass; [15])?
A: 100

Q: And the “Plant response rating, Bluegrass” value (annual bluegrass; [16])?
A: 100

Q: What about the “Plant response rating, Bluegrass” value (annual bluegrass; [18]) of the same compound?
A: 80

Q: And the “Plant response rating, Bluegrass” value (annual bluegrass; [19])?
A: 60
